Experiments:
[1] = logP by HPLC on reversed-phase column (C 18), EEC Directive 79/831 Annex V.A8, Method A (0.1% aqueous phosphoric acid / acetonitrile, 43°C); format: physicochemical; conditions: c18 reversed-phase hplc
Description: Calibration was carried out using unbranched alkan-2-ones (having 3 to 16 carbon atoms) with known logP values (determination of the logP values by the retention times using linear interpolation between two successive alkanones).

Meloidogyne incognita = format: in vivo; conditions: 336 h, 20 ppm
Description: Meloidogyne incognita - test
To produce a suitable preparation of active compound, 1 part by weight of active compound is mixed with the stated amount of solvent, and the concentrate is diluted with emulsifier-containing water to the desired concentration.
Vessels are filled with sand, a solution of the active ingredient, a suspension containing eggs and larvae of Meloidogyne incognita and salad seeds. The salad seeds germinate and the seedlings grow. Galls develop in the roots.
After 14 days the nematicidal activity is determined on the basis of the percentage of gall formation. 100% means that no galls were found; 0% means that the number of galls found on the roots of the treated plants was equal to that in untreated control plants.

[2] = LogP method A: HPLC reversed-phase C 18, 43°C, 0.1% aqueous phosphoric acid / acetonitrile
[3] = LogP method A: HPLC, 43°C, 0.1% aqueous phosphoric acid, acetonitrile, gradient 10% to 90% acetonitrile

| Structure (SMILES) | chromatographic logP [1, 2] | chromatographic logP [1, 3] | nematicidal activity determined on the basis of the percentage of gall formation (Meloidogyne incognita) |
| --- | --- | --- | --- |
| Cc1nc(C(=O)N(C2CC2)S(=O)(=O)c2ccc(Cl)c(C(F)(F)F)c2)cs1 [compound 69] | 3.63 |  | 80% |
| CC(C)c1c(C(=O)N(C2CC2)S(=O)(=O)c2ccc(Cl)c(Cl)c2)sc(=O)n1C1CC1 [compound 634] | 3.01 |  |  |
| CC(C)c1c(C(=O)N(C2CC2)S(=O)(=O)c2ccc(Cl)cc2Cl)sc(=O)n1C1CC1 [compound 635] | 2.01 |  |  |
| O=C(c1cccnc1)N(C1CC1)S(=O)(=O)c1ccc(Cl)c(C(F)(F)F)c1 [compound 638] | 3.1 |  | 100% |
| O=C(c1cccnc1)N(C1CC1)S(=O)(=O)c1ccc(Cl)c(Cl)c1 [compound 639] | 2.91 |  |  |
| O=C(c1cccnc1)N(C1CC1)S(=O)(=O)c1cccc(Cl)c1 [compound 642] | 2.3 |  |  |

Continued, in another order:

| chromatographic logP [1, 2] | chromatographic logP [1, 3] | Structure (SMILES) | nematicidal activity determined on the basis of the percentage of gall formation (Meloidogyne incognita) |
| --- | --- | --- | --- |
| 2.91 |  | O=C(c1cccnc1Cl)N(C1CC1)S(=O)(=O)c1cccc(Cl)c1 [compound 643] |  |
| 2.58 |  | O=C(c1cccnc1Cl)N(C1CC1)S(=O)(=O)c1ccccc1Cl [compound 644] |  |
| 3.57 |  | Cc1cc(C)c(C(=O)N(C2CC2)S(=O)(=O)c2cccc(Cl)c2Cl)c(Cl)n1 [compound 650] |  |
| 4.16 |  | Cc1cc(C)c(C(=O)N(C2CC2)S(=O)(=O)c2ccc(Cl)c(Cl)c2Cl)c(Cl)n1 [compound 651] |  |
| 2.78 |  | CC1=C(C(=O)N(C2CC2)S(=O)(=O)c2ccccc2Cl)OCCS1 [compound 652] |  |
| 3.2 |  | O=C(C1=C(C(F)(F)F)OCCS1)N(C1CC1)S(=O)(=O)c1ccccc1Cl [compound 653] |  |
| 2.93 |  | Cc1cc(C(=O)N(C2CC2)S(=O)(=O)c2ccccc2Cl)nc(Cl)n1 [compound 654] |  |
|  | 4.44 | Cc1nn(C)c(F)c1C(=O)N(C1(c2ccc(Cl)cc2)CC1)S(=O)(=O)c1cccc(Cl)c1Cl [compound 669] |  |
|  | 3.27 | Cc1nn(C)c(F)c1C(=O)N(C1CC1c1ccccc1)S(=O)(=O)c1ccccc1Cl (centres unmarked) [compound 676] |  |

— patent publication EP2540163A1, “Nematocide N-cyclopropyl-sulfonylamide derivatives” (Bayer CropScience AG, priority 2011, dated 2013)
